One assay relates to CCRF-CEM. Put plainly: XTT cytotoxicity/proliferation assay, CCRF-CEM. The assay is classed as cell-based. The note with it: Homo sapiens, CCRF-CEM. The method in brief:
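CCRF-CEM cells plated at 3000 per well, treated next day for 72 h with helquats over 1-100 μmol·l^−1. Viability by XTT reduction (2 h), absorbance 492 nm with 690 nm reference; IC50 from triplicates, repeated in at least three independent experiments, values above 100 μmol·l^−1 extrapolated.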

The next assay relates to c-myc protein. The assay can be described thus: Immunodetection of protein c-myc in HGC-27 cell lysates (Western blot). The class given is cell-based, human. The note with it: 50 μmol · l^−1, 24 hour incubation, normalized to β-actin. The method in brief: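 HGC-27 cells seeded at 25,000 cells/cm^2, treated next day with 50 μmol·l^−1 helquat for 24 h. RIPA lysates separated by 12% SDS-PAGE, blotted and probed for c-myc with β-actin loading control; chemiluminescence densitometry, c-myc normalized to β-actin and expressed relative to untreated control.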
A general note: In western blotting, separated proteins are transferred to a membrane and probed.

The mark [1] stands for this setting: 72 hours of treatment, read-out: IC50 CCRF CEM.
The mark [2] stands for this setting: 72 hours, summary of table 9, read-out: concentrations toxic towards CCRF-CEM cells.

Where two headings read alike, the source gives them in different places.

The text below walks through data of patent US9932339B2, “Helquats with heteroaromatic substituents, preparation thereof, and use thereof as G-quadruplex stabilizers” (USTAV ORGANICKE CHEMIE A BIOCHEMIE AV CR, V.V.I., priority 2014, dated 2018).

Take `O=[N+]([O-])c1cccc2[nH]cc(/C=C/c3cc[n+]4c(c3)-c3c(ccc5c3-c3cccc[n+]3CC5)CC4)c12` (racemic) [LSA-C9-32, (rac)-(E)-2-(2-(4-nitro-1H-indol-3-yl)vinyl)-6,7,10,11-tetrahydrodipyrido[2,1-a:1′,2′-k][2,9]phenanthroline-5,12-diium trifluoromethanesulfonate]: the figures for the IC50 in the assay with CCRF-CEM (setting [1]) and with CCRF-CEM (setting [2]) were 11 to 25 µM and < 25 µM, respectively.

For the compound `Cc1c(C)c2c(c3c1CC[n+]1ccc(/C=C/c4cccc5c4oc4ccccc45)cc1-3)-c1c3ccccc3cc[n+]1CC2` (racemic) [MJA-C13-8, (rac)-(E)-13-(2-(dibenzo[b,d]furan-4-yl)vinyl)-6,7-dimethyl-4,5,8,9-tetrahydroisoquinolino[1,2-a]pyrido[1,2-k][2,9]phenanthroline-3,10-diium trifluoromethanesulfonate], the “c-myc protein expression relative to control (control = 100%)” value in the assay on c-myc protein came out at 58%. Further, the IC50 in the assay with CCRF-CEM (setting [1]) was 26 to 50 µM.

Turning to `C(=C\c1cccc2c1oc1ccccc12)/c1cc[n+]2c(c1)-c1c(ccc3c1-c1c4ccccc4cc[n+]1CC3)CC2.O=S(=O)([O-])C(F)(F)F.O=S(=O)([O-])C(F)(F)F` [MSB-C13-8, (E)-13-(2-(dibenzo[b,d]furan-4-yl)vinyl)-4,5,8,9-tetrahydroisoquinolino[1,2-a]pyrido[1,2-k][2,9]phenanthroline-3,10-diium trifluoromethanesulfonate], in the assay on CCRF-CEM (setting [1]), the IC50 is 26 to 50 µM.

As to `Brc1ccc2[nH]cc(/C=C/c3cc4ccccc4[n+]4c3-c3c(ccc5c3-c3cccc[n+]3CCC5)CCC4)c2c1.O=S(=O)([O-])C(F)(F)F.O=S(=O)([O-])C(F)(F)F` [MSC-C9-30, 19-((E)-2-(5-bromo-1H-indol-3-yl)vinyl)-6,7,8,11,12,13-hexahydropyrido[1′″,2′″:1″,2″]azepino[4″,3″:5′,6′]benzo[1′,2′:3,4]azepino[1,2-a]quinoline-5,14-diium trifluoromethanesulfonate], the “c-myc protein expression relative to control (control = 100%)” value in the assay with c-myc protein was 14%. For the same compound, the values for the IC50 in the assay with CCRF-CEM (setting [1]) and in the assay on CCRF-CEM (setting [2]) were ≤ 10 µM and < 25 µM, respectively.

For `C(=C\c1c(-c2ccccc2)[nH]c2ccccc12)/c1cc2ccccc2[n+]2c1-c1c(ccc3c1-c1cccc[n+]1CCC3)CCC2.O=S(=O)([O-])C(F)(F)F.O=S(=O)([O-])C(F)(F)F` [MSC-C15-8, 19-((E)-2-(2-phenyl-1H-indol-3-yl)vinyl)-6,7,8,11,12,13-hexahydropyrido[1′″,2′″:1″,2″]azepino[4″,3″:5′,6′]benzo[1′,2′:3,4]azepino[1,2-a]quinoline-5,14-diium trifluoromethanesulfonate], the “c-myc protein expression relative to control (control = 100%)” value with c-myc protein stood at 58%. Also, in the assay on CCRF-CEM (setting [1]), the IC50 lay within 11 to 25 µM.
